Measurements as given in ChEMBL document CHEMBL4354805, “Discovery of MK-8719, a Potent O-GlcNAcase Inhibitor as a Potential Treatment for Tauopathies” (J Med Chem, 2019).
pEC50, pIC50, pKi: −log10 of the molar value.

What was measured:
[1] = target: Sodium channel protein type 5 subunit alpha (Homo sapiens, UniProt Q14524); test: Inhibition of Nav1.5 (unknown origin)
Cytochrome P450 2C9 = Cytochrome P450 2C9 (Homo sapiens, UniProt P11712); test: Inhibition of CYP2C9 (unknown origin); format: ADME
Cytochrome P450 3A4 = Cytochrome P450 3A4 (Homo sapiens, UniProt P08684); test: Inhibition of CYP3A4 (unknown origin); format: ADME
MDR1 = test: Apparent permeability in pig LLC-PK1 cells transfected with MDR1; format: ADME, cell-based, Sus scrofa
Cytochrome P450 2D6 = Cytochrome P450 2D6 (Homo sapiens, UniProt P10635); test: Inhibition of CYP2D6 (unknown origin); format: ADME
[2] = Half life in Wistar Han rat at 2 mg/kg, iv; format: ADME, organism-based; details: in vivo
[3] = Volume of distribution at steady state in Wistar Han rat at 2 mg/kg, iv or 10 mg/kg, po; format: ADME, organism-based; details: in vivo, read-out: Vdss
Protein O-GlcNAcase [4] = target: T1, Protein O-GlcNAcase (Rattus norvegicus, UniProt Q8VIJ5); test: Inhibition of OGA in rat PC12 cells assessed as OGlcNAcylated protein level incubated for 24 hrs by ELISA; format: cell-based
T1 sequence (Q8VIJ5 whole entry): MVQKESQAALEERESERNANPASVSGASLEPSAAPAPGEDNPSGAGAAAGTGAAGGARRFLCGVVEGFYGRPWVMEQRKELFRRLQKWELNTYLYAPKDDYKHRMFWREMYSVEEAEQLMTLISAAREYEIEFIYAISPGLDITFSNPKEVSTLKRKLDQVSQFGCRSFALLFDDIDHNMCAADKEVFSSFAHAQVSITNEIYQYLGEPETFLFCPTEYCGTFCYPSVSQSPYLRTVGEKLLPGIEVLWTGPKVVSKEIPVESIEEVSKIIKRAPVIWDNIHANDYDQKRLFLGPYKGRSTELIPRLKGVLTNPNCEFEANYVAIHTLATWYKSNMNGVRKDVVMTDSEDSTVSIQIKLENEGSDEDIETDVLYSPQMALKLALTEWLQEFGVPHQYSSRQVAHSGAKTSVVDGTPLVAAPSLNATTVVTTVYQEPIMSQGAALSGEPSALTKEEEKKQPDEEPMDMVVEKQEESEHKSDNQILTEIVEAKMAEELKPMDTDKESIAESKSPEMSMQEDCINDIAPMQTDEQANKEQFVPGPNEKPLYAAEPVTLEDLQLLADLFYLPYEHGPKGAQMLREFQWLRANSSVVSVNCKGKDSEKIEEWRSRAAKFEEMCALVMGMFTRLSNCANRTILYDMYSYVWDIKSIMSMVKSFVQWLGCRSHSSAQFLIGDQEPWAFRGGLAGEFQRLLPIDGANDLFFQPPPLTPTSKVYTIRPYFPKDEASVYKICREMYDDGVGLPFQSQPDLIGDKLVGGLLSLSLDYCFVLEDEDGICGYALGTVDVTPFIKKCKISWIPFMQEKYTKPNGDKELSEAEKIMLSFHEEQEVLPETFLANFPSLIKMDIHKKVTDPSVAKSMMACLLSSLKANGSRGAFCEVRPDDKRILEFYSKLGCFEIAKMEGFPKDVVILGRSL

[5] = Clearance in Wistar Han rat at 2 mg/kg, iv; format: ADME, organism-based; details: in vivo
[6] = target: Voltage-dependent L-type calcium channel subunit alpha-1C (Homo sapiens, UniProt Q13936); test: Inhibition of Cav1.2 (unknown origin)
[7] = Oral bioavailability in Wistar Han rat at 10 mg/kg; format: ADME, organism-based; details: in vivo
[8] = AUCN in Wistar Han rat at 10 mg/kg, po; format: ADME, organism-based; details: in vivo
Protein O-GlcNAcase [9] = target: T2, Protein O-GlcNAcase (Homo sapiens, UniProt O60502); test: Inhibition of recombinant human OGA
T2 sequence (O60502 whole entry): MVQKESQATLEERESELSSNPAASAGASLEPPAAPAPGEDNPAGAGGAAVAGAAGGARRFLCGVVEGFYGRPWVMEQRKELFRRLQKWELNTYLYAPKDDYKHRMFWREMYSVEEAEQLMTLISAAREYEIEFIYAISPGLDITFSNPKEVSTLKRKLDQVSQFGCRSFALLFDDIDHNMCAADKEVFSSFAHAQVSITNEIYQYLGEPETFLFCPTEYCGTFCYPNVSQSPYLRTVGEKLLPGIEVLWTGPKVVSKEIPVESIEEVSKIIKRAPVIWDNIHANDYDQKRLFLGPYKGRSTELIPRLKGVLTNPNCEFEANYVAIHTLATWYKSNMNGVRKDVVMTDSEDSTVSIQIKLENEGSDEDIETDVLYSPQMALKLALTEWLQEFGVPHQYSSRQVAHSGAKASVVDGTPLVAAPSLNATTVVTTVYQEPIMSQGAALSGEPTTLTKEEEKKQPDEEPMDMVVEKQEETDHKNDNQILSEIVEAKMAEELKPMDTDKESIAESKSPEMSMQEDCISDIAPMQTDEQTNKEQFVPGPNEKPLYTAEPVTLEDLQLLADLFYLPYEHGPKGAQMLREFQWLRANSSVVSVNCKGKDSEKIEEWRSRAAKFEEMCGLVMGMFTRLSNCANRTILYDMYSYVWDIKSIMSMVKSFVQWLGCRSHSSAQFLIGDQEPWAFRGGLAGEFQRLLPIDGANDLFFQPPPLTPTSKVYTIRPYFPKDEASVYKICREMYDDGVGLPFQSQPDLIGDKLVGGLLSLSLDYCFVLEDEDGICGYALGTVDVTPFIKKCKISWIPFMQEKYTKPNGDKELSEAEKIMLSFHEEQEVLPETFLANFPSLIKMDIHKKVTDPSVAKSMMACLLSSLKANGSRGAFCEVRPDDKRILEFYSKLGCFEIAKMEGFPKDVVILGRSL

[10] = target: T3, Nuclear receptor subfamily 1 group I member 2 (Homo sapiens, UniProt O75469); test: Activation of PXR (unknown origin) assessed as CYP3A4 induction
T3 sequence (O75469 whole entry): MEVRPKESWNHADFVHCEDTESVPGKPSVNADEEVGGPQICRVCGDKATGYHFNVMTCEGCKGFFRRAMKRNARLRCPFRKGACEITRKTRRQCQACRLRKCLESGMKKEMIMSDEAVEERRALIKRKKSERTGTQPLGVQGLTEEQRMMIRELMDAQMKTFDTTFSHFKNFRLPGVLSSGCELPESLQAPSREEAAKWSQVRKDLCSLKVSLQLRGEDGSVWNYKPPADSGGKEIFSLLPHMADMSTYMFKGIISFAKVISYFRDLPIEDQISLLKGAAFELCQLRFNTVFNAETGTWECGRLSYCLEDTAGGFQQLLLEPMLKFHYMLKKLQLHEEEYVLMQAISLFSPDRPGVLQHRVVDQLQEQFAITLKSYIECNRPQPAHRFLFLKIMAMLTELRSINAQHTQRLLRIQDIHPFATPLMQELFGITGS

[11] = target: Voltage-gated inwardly rectifying potassium channel KCNH2 (Homo sapiens, UniProt Q12809); test: Displacement of MK-0499 from human ERG
[12] = target: T4, Beta-hexosaminidase subunit beta (Homo sapiens, UniProt P07686); test: Inhibition of human beta hexosaminidase assessed as inhibitory constant using 4-methylumbelliferyl N-acetyl-beta-D-glucosaminide dihydrate as substrate measured every 60 sec for 45 mins by fluorescence spectrophotometry
T4 sequence (P07686 whole entry): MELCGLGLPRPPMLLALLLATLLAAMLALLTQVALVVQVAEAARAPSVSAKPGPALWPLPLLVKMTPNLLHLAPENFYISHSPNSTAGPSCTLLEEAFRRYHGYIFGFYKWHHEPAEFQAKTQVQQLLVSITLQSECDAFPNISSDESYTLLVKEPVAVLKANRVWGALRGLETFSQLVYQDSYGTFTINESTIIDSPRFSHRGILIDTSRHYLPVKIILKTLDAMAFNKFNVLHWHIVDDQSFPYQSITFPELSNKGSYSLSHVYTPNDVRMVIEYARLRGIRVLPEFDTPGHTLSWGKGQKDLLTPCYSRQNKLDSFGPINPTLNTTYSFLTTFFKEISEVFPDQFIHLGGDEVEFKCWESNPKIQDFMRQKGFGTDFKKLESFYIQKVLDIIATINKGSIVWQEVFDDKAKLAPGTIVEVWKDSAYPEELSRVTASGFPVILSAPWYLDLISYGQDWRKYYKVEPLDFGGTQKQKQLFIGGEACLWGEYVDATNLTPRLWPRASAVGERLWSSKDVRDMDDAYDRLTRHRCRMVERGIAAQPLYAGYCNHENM

[13] = Drug uptake in rat brain at 3 mg/kg, po measured after 24 hrs; format: ADME, organism-based; details: in vivo
[14] = Ratio of drug uptake in rat brain to plasma at 3 mg/kg, po measured after 24 hrs; format: ADME, organism-based; details: read-out: BPR
[15] = Ratio of drug uptake in rat brain to plasma at 3 mg/kg, po measured after 8 hrs; format: ADME, organism-based; details: read-out: BPR
Rattus norvegicus [16] = test: Elevation of O-protein in rat brain at 3 mg/kg, po measured after 8 hrs relative to control; format: functional
Rattus norvegicus [17] = test: Elevation of O-protein in rat brain at 3 mg/kg, po measured after 24 hrs relative to control; format: functional
[18] = Oral bioavailability in Wistar Han rat at 3 mg/kg; format: ADME, organism-based; details: in vivo
[19] = Fraction unbound in human plasma at 2.5 uM by equilibrium dialysis; format: ADME, cell-free
[20] = AUCN in Wistar Han rat at 3 mg/kg, po; format: ADME, organism-based; details: in vivo
[21] = Fraction unbound in Wistar Han rat plasma at 2.5 uM by equilibrium dialysis; format: ADME, cell-free
[22] = Drug uptake in rat brain at 3 mg/kg, po measured after 8 hrs; format: ADME, organism-based; details: in vivo
[23] = Volume of distribution at steady state in Wistar Han rat at 2 mg/kg, iv or 3 mg/kg, po; format: ADME, organism-based; details: in vivo, read-out: Vdss

Cytochrome P450 3A4, sequence (P08684 whole entry): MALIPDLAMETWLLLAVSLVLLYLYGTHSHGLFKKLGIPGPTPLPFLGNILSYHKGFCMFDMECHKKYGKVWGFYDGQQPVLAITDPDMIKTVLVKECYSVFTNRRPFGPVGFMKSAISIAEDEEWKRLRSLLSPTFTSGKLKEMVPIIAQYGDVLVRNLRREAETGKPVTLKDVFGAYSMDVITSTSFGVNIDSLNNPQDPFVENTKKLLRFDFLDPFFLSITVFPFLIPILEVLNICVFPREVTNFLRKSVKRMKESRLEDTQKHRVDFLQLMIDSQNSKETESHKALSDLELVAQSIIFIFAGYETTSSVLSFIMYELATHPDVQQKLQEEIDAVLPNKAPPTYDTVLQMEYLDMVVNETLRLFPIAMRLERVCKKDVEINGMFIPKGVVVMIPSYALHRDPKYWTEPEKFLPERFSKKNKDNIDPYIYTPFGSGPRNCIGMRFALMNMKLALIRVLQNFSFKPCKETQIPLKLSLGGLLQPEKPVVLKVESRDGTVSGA
Voltage-gated inwardly rectifying potassium channel KCNH2, sequence (Q12809 whole entry): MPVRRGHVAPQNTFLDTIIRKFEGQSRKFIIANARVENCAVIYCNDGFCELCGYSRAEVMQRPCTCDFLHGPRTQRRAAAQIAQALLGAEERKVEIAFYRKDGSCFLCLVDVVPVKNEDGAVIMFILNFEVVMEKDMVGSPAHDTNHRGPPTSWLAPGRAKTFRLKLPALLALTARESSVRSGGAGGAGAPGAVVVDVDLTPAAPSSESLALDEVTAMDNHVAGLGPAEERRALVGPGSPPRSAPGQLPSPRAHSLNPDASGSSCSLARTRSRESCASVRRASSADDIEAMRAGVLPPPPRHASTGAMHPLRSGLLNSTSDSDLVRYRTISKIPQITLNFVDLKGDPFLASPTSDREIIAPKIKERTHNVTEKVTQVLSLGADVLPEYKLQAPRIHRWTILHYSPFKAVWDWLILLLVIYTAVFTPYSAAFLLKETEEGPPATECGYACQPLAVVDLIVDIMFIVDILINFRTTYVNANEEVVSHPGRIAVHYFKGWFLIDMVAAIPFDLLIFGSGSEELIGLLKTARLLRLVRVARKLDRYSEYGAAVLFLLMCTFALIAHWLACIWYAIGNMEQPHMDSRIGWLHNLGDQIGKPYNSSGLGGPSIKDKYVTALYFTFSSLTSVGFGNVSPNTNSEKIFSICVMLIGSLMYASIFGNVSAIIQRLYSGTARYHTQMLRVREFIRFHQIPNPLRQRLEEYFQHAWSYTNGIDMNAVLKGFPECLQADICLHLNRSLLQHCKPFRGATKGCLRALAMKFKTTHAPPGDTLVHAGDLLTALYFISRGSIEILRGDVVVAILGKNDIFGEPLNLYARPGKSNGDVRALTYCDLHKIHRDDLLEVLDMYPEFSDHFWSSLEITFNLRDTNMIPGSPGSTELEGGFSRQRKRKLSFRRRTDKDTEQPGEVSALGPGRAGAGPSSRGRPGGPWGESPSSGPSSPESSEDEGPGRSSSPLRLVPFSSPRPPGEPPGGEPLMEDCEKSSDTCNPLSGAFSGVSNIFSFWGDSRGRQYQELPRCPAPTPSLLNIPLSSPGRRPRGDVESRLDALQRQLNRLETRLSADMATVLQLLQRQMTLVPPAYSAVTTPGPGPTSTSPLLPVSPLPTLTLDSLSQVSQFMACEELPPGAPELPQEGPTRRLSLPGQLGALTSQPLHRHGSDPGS
Cytochrome P450 2D6, sequence (P10635 whole entry): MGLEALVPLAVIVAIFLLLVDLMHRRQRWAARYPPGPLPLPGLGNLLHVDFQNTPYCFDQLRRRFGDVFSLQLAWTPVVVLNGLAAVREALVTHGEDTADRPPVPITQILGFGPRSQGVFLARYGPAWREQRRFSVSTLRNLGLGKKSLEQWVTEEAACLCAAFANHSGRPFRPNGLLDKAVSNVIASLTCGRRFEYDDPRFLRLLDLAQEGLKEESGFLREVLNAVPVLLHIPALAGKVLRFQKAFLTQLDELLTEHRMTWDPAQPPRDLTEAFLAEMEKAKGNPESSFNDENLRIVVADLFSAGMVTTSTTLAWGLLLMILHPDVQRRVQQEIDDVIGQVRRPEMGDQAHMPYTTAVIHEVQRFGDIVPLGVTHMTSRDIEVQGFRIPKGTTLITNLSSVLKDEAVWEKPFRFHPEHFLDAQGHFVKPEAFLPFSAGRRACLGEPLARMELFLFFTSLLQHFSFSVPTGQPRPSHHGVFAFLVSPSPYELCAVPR
Cytochrome P450 2C9, sequence (P11712 whole entry): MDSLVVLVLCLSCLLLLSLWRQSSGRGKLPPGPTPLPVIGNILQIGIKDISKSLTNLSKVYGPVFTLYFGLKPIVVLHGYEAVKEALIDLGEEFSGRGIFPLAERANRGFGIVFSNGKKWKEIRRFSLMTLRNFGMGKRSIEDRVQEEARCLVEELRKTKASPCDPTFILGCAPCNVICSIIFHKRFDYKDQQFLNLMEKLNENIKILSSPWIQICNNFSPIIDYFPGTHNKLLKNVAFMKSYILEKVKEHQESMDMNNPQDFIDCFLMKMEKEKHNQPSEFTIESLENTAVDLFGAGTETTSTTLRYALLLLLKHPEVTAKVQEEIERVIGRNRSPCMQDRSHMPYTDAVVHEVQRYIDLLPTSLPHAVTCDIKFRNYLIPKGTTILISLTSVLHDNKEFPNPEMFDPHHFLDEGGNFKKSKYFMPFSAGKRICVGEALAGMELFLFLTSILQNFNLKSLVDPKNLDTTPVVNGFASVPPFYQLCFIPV
Voltage-dependent L-type calcium channel subunit alpha-1C, sequence (Q13936 whole entry): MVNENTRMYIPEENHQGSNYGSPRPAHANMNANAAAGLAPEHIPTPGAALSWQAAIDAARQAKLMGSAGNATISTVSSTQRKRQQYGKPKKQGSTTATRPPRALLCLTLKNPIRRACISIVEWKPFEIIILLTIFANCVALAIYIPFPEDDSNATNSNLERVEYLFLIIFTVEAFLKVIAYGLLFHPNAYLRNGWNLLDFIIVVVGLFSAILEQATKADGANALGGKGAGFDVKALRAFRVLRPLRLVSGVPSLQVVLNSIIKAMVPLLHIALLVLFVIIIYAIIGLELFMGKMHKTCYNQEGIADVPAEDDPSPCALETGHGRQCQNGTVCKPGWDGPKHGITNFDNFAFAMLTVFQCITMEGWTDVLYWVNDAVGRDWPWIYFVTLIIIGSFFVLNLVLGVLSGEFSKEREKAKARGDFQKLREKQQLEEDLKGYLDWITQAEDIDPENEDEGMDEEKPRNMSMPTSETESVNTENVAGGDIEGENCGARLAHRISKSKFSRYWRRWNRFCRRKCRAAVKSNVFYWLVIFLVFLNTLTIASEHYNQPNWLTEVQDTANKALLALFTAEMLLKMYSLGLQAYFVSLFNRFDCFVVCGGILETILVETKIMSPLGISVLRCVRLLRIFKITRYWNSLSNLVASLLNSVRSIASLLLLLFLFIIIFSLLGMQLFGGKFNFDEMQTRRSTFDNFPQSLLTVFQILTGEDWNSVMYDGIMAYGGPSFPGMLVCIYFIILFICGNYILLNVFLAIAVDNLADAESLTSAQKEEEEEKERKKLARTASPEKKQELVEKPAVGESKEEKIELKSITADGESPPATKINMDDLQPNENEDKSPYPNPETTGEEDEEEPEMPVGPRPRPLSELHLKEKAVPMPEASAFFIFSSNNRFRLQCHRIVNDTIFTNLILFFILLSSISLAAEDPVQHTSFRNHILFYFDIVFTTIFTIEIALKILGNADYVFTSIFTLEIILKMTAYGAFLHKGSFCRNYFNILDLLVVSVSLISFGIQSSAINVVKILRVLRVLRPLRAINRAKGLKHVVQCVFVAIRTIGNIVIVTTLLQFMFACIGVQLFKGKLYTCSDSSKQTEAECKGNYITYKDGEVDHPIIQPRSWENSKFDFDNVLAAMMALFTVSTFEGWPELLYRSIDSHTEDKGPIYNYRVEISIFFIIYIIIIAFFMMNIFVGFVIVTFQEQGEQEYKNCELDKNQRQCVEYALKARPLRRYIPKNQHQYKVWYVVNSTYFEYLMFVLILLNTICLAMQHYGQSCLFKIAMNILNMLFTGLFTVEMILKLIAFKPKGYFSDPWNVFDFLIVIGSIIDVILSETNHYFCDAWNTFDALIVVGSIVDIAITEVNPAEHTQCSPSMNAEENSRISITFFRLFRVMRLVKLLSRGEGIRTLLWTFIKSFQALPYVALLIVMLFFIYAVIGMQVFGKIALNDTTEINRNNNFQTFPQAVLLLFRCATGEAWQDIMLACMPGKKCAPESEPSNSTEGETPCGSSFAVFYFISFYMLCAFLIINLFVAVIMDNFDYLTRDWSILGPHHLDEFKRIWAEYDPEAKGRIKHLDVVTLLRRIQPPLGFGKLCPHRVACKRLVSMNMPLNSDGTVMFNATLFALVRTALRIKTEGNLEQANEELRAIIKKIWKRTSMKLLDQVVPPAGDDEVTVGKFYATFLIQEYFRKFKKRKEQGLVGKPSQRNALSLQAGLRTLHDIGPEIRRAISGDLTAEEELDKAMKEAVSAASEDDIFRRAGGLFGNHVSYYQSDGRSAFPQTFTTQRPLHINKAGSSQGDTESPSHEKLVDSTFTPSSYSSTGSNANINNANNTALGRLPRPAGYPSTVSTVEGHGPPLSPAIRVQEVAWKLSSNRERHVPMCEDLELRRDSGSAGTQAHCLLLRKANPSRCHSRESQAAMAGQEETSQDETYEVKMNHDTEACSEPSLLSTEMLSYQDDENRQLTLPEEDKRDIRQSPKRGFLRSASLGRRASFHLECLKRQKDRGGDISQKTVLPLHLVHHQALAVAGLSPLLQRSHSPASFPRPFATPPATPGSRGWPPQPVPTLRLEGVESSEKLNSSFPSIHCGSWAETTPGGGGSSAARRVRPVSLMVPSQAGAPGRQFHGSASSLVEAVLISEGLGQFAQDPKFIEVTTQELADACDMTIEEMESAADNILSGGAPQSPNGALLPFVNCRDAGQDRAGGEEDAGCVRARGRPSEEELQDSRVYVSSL

Compound | pIC50 (Cytochrome P450 2C9) | pIC50 (Cytochrome P450 3A4) | Papp (MDR1) [×10⁻⁶ cm/s] | pIC50 (Cytochrome P450 2D6) | half-life [2] [h] | pEC50 (Protein O-GlcNAcase [4]) | clearance [5] [mL/min/kg] | pKi (Protein O-GlcNAcase [9]) | pEC50 [10] | pKi [12] | Kp at 8 h [15] | bioavailability [18] [%] | AUC/dose [20] [µM·kg·h/mg] | Drug uptake [22] [nmol/g] | Vd [23] [L/kg] | pIC50 [1] | pIC50 [6] | pIC50 [11] | fold change (FC) (Rattus norvegicus [16]) | other results
CCNC1=N[C@@H]2C[C@H](O)[C@@H](CO)O[C@@H]2S1 | < 4.30 | < 4.30 | 2.6 | < 4.30 |  |  |  |  | < 4.52 | < 5.00 |  |  |  |  |  | < 4.52 | < 4.52 | < 4.52 |  | 
CCNC1=N[C@@H]2[C@@H](OC)[C@H](O)[C@@H](CO)O[C@@H]2S1 | < 4.30 | < 4.30 |  | < 4.30 |  |  |  | 6.57 | < 4.52 | < 5.00 |  |  |  |  |  | < 4.52 | < 4.52 | < 4.52 |  | 

Continued, in another order:

pIC50 (Cytochrome P450 2C9) | pIC50 (Cytochrome P450 3A4) | Papp (MDR1) [×10⁻⁶ cm/s] | pIC50 (Cytochrome P450 2D6) | half-life [2] [h] | pEC50 (Protein O-GlcNAcase [4]) | clearance [5] [mL/min/kg] | pKi (Protein O-GlcNAcase [9]) | pEC50 [10] | pKi [12] | Kp at 8 h [15] | bioavailability [18] [%] | AUC/dose [20] [µM·kg·h/mg] | Drug uptake [22] [nmol/g] | Vd [23] [L/kg] | Compound | pIC50 [1] | pIC50 [6] | pIC50 [11] | fold change (FC) (Rattus norvegicus [16]) | other results
< 4.30 | < 4.30 | 1.1 | < 4.30 | 1.89 | 7.44 | 66.3 | 8.26 | < 4.52 | 5.44 |  |  |  |  |  | CCN(C)C1=N[C@@H]2[C@@H](O)[C@H](O)[C@@H](CO)O[C@@H]2S1 | < 4.52 | < 4.52 | < 4.52 |  | Vd [3]: 5.39 L/kg; bioavailability [7]: 62%; AUC/dose [8]: 0.598 µM·kg·h/mg
 |  | 6.8 |  |  | 6.75 | 43.7 | 8.05 |  | 5.80 | 0.9 | 75.3 | 0.954 | 0.222 | 10.5 | CN(C)C1=N[C@@H]2[C@@H](O)[C@H](O)[C@@H](CF)O[C@@H]2S1 |  |  |  | 2.33 | Drug uptake [13]: 0.038 nmol/g; Kp at 24 h [14]: 1.53; fold change (FC) (Rattus norvegicus [17]): 1.77; fraction unbound at 2.5 µM [19]: > 0.99; fraction unbound at 2.5 µM [21]: > 0.99
 |  | 14 |  | 3.89 | 7.38 | 72.6 | 8.28 |  | < 5.00 | 8.81 | 44.8 | 0.376 | 0.193 | 5.99 | CCCNC1=N[C@@H]2[C@@H](O)[C@H](O)[C@@H](C(F)F)O[C@@H]2S1 |  |  |  | 1.81 | 
